System: carrageenan-induced inflammatory oedema of the rat paw
Experiment: Test of carrageenan-induced inflammatory oedema (rat paw, plethysmometry)
Assay type: in vivo, Rat of Wistar type
Conditions: for V oedema: difference in paw volume before and three hours after carrageenan, one hour before carrageenan; for Reduction in oedema: versus controls, three hours after carrageenan
Method: The compounds of the formula (I) were subjected to biological tests designed to reveal their anti-inflammatory activity. The in vivo activity of the compounds of the formula (I) was studied in an experimental model of inflammation in rats. Inflammatory oedema of the rat paw is induced by intradermal injection of carrageenan (1% V/V) into the hind paw of the rat. This oedema is measured by plethysmometry according to the method of Winter C. A. et al. (Proc. Soc. Exp. Biol. Med.; (1962); 111; 544-547). The substances with an anti-inflammatory effect bring about a reduction in the oedema thus created. Indomethacin is used as anti-inflammatory reference in the test.
Animal model: Rat of Wistar type
Anti-inflammatory reference: indomethacin from the company Sigma
Control: 0.5% methylcellulose hydrogel.
After fasting for one day, the volume of the right hind paw is measured [V paw]. The test compounds, the reference and the control are administered orally in a volume of 10 ml/kg. One hour after administration, oedema is induced by an intraplantar injection of 50 microlitres of carrageenan (1%, VN) hydrogel into the right hind paw. The volume of this paw is measured three hours after inducing the oedema. The intensity of the oedema [V oedema] is evaluated by the difference in the volume of the paw, before and three hours after the injection of carrageenan.

| Structure (SMILES) | V oedema (oral 30 mg) | V oedema (oral 100 mg) | V oedema (oral 300 mg) | Reduction in oedema (oral 30 mg) | Reduction in oedema (oral 100 mg) | Reduction in oedema (oral 300 mg) | V oedema (oral, dose not given) | Reduction in oedema (oral, dose not given) |
| --- | --- | --- | --- | --- | --- | --- | --- | --- |
| O=C(CC(Cc1ccccc1)C(=O)O)c1ccc(F)cc1 (single isomer, unassigned; (-)) [P, (−)-2-benzyl-4-(4-fluorophenyl)-4-oxobutanoic acid] | 0.42 mL | 0.11 mL | 0.17 mL | −32% | −83% | −73% |  |  |
| COc1ccc2c(c1)c(CC(=O)O)c(C)n2C(=O)c1ccc(Cl)cc1 [Indomethacin, indomethacin, reference compound] |  |  |  |  |  |  | 0.20 mL | −67% |

Reference: US20050014768A1, “Use of 4-oxobutanoic acid derivatives in the treatment of inflammation” (priority 2001, published 2005)
